According to US20230416265A1, “COMPOUNDS FOR THE DETECTION OF HEME OXYGENASE 1 (HO-1), AND METHODS AND USES INVOLVING THE SAME” (IMPERIAL COLLEGE INNOVATIONS LIMITED, priority 2020, published 2023):
Several values for one entry are separate records, joined by “and”; a condition that tells them apart may be missing. Equal values may be shown once.

How the values were obtained:
[1] = Photophysical studies in PBS buffer pH 7.4; format: physicochemical; settings: for E [%] (FRET efficiency): PBS buffer pH 7.4, 20 μM, 298 K; for Ø514 nm [%] (quantum yield): PBS buffer pH 7.4, 298 K, ± 20%, standard H2TPP in toluene (Ø514 nm = 0.11)
Method: (§1) UV-Visible absorption spectra were measured using an Agilent Technologies Cary 60 Spectrophotometer operating with VVinUV software. The sample was held in a quartz cuvette with a path length of 1 cm. Absorption spectra were recorded against a baseline of pure solvent in an optically matched cuvette with a scan rate of 600 nm/min and a data interval of 1.0 nm. Emission and excitation spectra were acquired on an Agilent Technologies Carry Eclipse Fluorescence Spectrophotometer, in quartz cuvettes with a path length of 1 cm. Emission and excitation spectra were collected with a scan rate of 120.0 nm/min, a delay interval of 1.0 nm and band-passes of 5 nm.
Measurements were recorded in aqueous solutions of PBS buffer at pH 7.4 in order to mimic physiological conditions.
(§2) In the examples highlighted above, the sample concentration was […] in PBS buffer and 10 pM in chloroform. All measurements were performed at 298 K.

[2] = Photophysical studies in chloroform; format: physicochemical; settings: 298 K; for E [%] (FRET efficiency) / Emission λmax [nm]: λex = 320 nm; for Ø514 nm [%] (quantum yield): ± 20%, standard H2TPP in toluene (Ø514 nm = 0.11)
Method: as §1, with “5 nm. […]” for “5 nm.”
as §2

[3] = Photophysical studies in PBS buffer pH 7.4; format: physicochemical; settings: PBS buffer pH 7.4, 20 μM, λex = 320 nm, 298 K
HO-1 = molecular target: T1, HO-1 (Homo sapiens, UniProt P09601); assay: Control experiment: quenching of coumarin 1i fluorescence on addition of HO-1 in E. coli lysates; format: biochemical; settings: λex = 320 nm
T1 construct: made in house; host or cells: E. coli (lysate)
T1 sequence (P09601 1-288): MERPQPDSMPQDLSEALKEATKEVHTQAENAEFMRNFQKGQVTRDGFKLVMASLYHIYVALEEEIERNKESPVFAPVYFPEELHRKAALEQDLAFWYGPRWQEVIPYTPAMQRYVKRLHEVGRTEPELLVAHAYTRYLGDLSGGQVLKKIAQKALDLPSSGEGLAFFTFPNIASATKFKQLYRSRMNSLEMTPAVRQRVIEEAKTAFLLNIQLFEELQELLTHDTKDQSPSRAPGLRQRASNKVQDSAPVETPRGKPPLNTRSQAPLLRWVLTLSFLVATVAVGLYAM

Compound	porphyrin emission following Fe2+ complexation ([1]; PBS buffer and chloroform, λex = 320 nm)	E [%] (FRET efficiency) ([1]; λex = 320 nm)	E [%] (FRET efficiency) [2]	Emission λmax [nm] [2]	Emission λmax [nm] [3]	decrease in the emission intensity at 384 nm following addition of HO-1 (HO-1) [fold]	Ø514 nm [%] (quantum yield) [1]	Ø514 nm [%] (quantum yield) [2]
Iron(11) dimethyl 3,3′-(3,7,8,12,13,17-hexamethyl-10-(4-(2-((4-methyl-2-oxo-2H-chromen-7-yl)oxy)ethoxy) phenyl)porp-hyrin-2,18-diyl)dipropionate [Compound 1h]	completely quenched	99.2	98.7	385^[a], [b] nm	387 ^[b], [c] nm	–	–	–
Cc1cc(=O)oc2cc(OCCBr)ccc12 [Compound 1f]	–	–	–	382 nm	384 nm and 383 ^[b] nm	–	–	–

More lines, now with the values ahead:

porphyrin emission following Fe2+ complexation ([1]; PBS buffer and chloroform, λex = 320 nm)	E [%] (FRET efficiency) ([1]; λex = 320 nm)	E [%] (FRET efficiency) [2]	Emission λmax [nm] [2]	Emission λmax [nm] [3]	decrease in the emission intensity at 384 nm following addition of HO-1 (HO-1) [fold]	Ø514 nm [%] (quantum yield) [1]	Ø514 nm [%] (quantum yield) [2]	Compound
–	–	–	381 nm	384 nm	2.3	–	–	Cc1cc(=O)oc2cc(OCCOc3ccc(C(=O)O)cc3)ccc12 [Compound 1i, 4-(2-((4-Methyl-2-oxo-2H-chromen-7-yl)oxy)ethoxy)benzoic acid]
–	95.1	99.7	385 nm and 629 nm and 695 nm	387 nm	–	0.5	5.2	COC(=O)CCC1=C(C)c2cc3[nH]c(c(C)c3C)c(-c3ccc(OCCOc4ccc5c(C)cc(=O)oc5c4)cc3)c3nc(cc4[nH]c(cc1n2)c(CCC(=O)OC)c4C)C(C)=C3C [Compound 1g]
–	96.8	96.6	379 nm and 654 nm and 719 nm	383 nm	–	2.0	17.4	Cc1cc(=O)oc2cc(OCCOc3ccc(-c4c5nc(c(-c6ccccc6)c6ccc([nH]6)c(-c6ccccc6)c6nc(c(-c7ccccc7)c7ccc4[nH]7)C=C6)C=C5)cc3)ccc12 [Compound C3g, reference compound]
